According to patent US8846329B1, “Microorganisms for producing organic acids” (Wisconsin Alumni Research Foundation, priority 2012, dated 2014):
In brackets after ≈: the same amount, converted by molar mass. Read-outs that look alike come from different tables or passages of the source.

Tests used:
AcsA = experiment: Acyl-CoA ligase activity assay; type: biochemical, Synechococcus sp. PCC 7002; conditions: 2 mM organic acid, 500 nM AcsA, CoA consumed in 4 min relative to acetate
Description: Acyl-CoA ligase purification: Escherichia coli BL21 containing plasmid pET28b with acsA were grown in 50 mL of LB to an OD600 nm of 0.6 and induced with 1 mM IPTG. The induced culture was shaken at 37° C. for 3 hrs. The culture was centrifuged and the resulting cell pellet was frozen at −20° C. The cell pellet was processed with Novagen BugBuster Protein Extraction Reagent (Part No. 70584-3). The resulting soluble protein fraction was used for His-tag purification using Ni-NTA agarose beads (Qiagen) and Pierce 0.8-mL centrifugation columns (Part No. 89868). Washes were done with 50 mM NaH2PO4, 300 mM NaCl, and 30 mM imidizole pH 8.0. The his-tagged protein was eluted with 50 mM NaH2PO4, 300 mM NaCl, and 250 mM imidizole pH 8.0. The insoluble fraction from the protein extraction was washed twice with BugBuster reagent followed by incubation with 400 μL 8M urea, 100 mM Tris-HCl, and 100 mM β-mercaptoethanol pH 8.2 for 30 min. The resulting solution was centrifuged at 16,000×g and the supernatant was collected. Protein fractions were run on a SDS-PAGE gel. His-tag purified protein fractions used in the acyl-CoA ligase assay were concentrated and buffered exchanged using an Amicon Ultra-4 centrifugation column. The buffer used for enzyme storage contained 0.1M NaH2PO4, 1 mM EDTA, and 10% v/v glycerol.
Acyl-CoA ligase activity assay: Acyl-CoA ligase activity was determined by measuring the loss of free Coenzyme A (CoA) over time using Ellman's reagent. (Riddles P W, Blakeley R L, & Zerner B (1979) Ellman's reagent: 5,5′-dithiobis(2-nitrobenzoic acid)—a reexamination. Analytical Biochemistry 94(1):75-81.) The enzyme reaction contained 10 mM ATP, 8 mM MgCl2, 3 mM CoA, 0.1 M NaH2PO4, 1 mM EDTA, and 2 mM of the organic acid species. The concentration of AcsA in the reaction was 500 nM. Relative activity was determined by the amount of CoA consumed in 4 min relative to an acetate control.

[1] = test system: Synechococcus sp. PCC 7002; experiment: Minimum inhibitory concentration of organic acids / growth inhibition; type: cell-based; conditions: for MIC: Synechococcus; for Minimum inhibitory concentration: Table 3
Excerpt: (§1) One aspect of the increased tolerance to organic acids is an increase in the minimal inhibitory concentration (MIC) of a particular organic acid compared to a corresponding microorganism. MIC is the lowest concentration of an agent that will inhibit growth of a microorganism. An MIC can be determined by titrating the agent in the growth medium of the microorganism. The lowest concentration of the agent in which the microorganism is no longer able to grow is the MIC. Methods of culturing microorganisms and of detecting their growth are well known in the art and are not discussed in detail herein.
(§2) The minimum inhibitory concentrations (MIC) for PCC 7002, Synechococcus sp. PCC 7942, and Synechocystis sp. PCC 6803 were determined for acrylic acid, 3HP, and propionic acid at a pH of about 8 (Table 1).

[2] = test system: Synechococcus sp. PCC 7942; experiment: Minimum inhibitory concentration of organic acids; type: cell-based; conditions: for MIC: Synechococcus; for Minimum inhibitory concentration: Table 3
Excerpt: as §1
(§3) Because of this, the toxicity of organic acids generally increases with the hydrophobicity of the compound [35]. The minimum inhibitory concentrations (MIC) for PCC 7002, Synechococcus sp. PCC 7942, and Synechocystis sp. PCC 6803 were determined for acrylic acid, 3HP, and propionic acid at a pH of about 8 (Table 1). […] The low MIC for acrylic acid explains why cultures grown with DMSP become growth inhibited. Cultures with DMSP only show growth inhibition when the accumulating acrylic acid concentration reaches inhibitory concentrations.

[3] = test system: Synechocystis sp. PCC 6803; experiment: Minimum inhibitory concentration of organic acids; type: cell-based; conditions: for MIC: Synechocystis; for Minimum inhibitory concentration: Table 3
Excerpt: as §1, §3
(§4) Homologous genes were identified in the cyanobacteria Synechocystis sp. PCC 6803 (s110542; SEQ ID NOS:3 and 4) and Synechococcus sp. PCC 7942 (SYNPCC7942—1342; SEQ ID NOS:5 and 6). […] When selecting for growth of Synechocystis sp. PCC 6803 on 50 μM acrylic acid, the mutation frequency was 2×10^−6.

PCC 7002 acsA::aadA = experiment: microbe, parasite or virus in culture; type: cell-based, Synechococcus sp. PCC 7002; conditions: for Increase in MIC on functional deletion of the acsA gene product: Synechococcus sp. PCC 7002, pH of about 8
Description: This hypothesis was tested by creating a knockout mutant of the acsA gene. This knockout was created by transforming wild type PCC 7002 with a DNA construct that would replace the acsA gene with an antibiotic resistance marker through homologous recombination. The resulting mutant, ΔacsA, was challenged with concentrations of acrylic acid, 3HP, and propionic acid above WT PCC 7002 MIC levels.
Deletion and complementation studies were performed in various Synechococcus spp. and Synechocystis spp. Replacement of the gene acsA in Synechococcus sp.

[4] = cited from earlier work
[5] = test system: PCC 7002 acsA::BC glpK::acsAW49L aadA; experiment: Minimum inhibitory concentration, acsAW49L complementation strain; type: cell-based, Synechococcus sp. PCC 7002; conditions: Synechococcus, read-out: Minimum inhibitory concentration
Description: (§5) Deletion and complementation studies were performed in various Synechococcus spp. and Synechocystis spp. Replacement of the gene acsA in Synechococcus sp. […] An identical level of increase was observed when acsA was replaced with a 20 base-pair barcode sequence. This phenotype was complemented in an acsA deletion strain by expression of acsA under the native promoter in another locus on the chromosome (glpK).

PCC 7002 acsA::BC = experiment: Minimum inhibitory concentration, acsA barcode replacement strain; type: cell-based, Synechococcus sp. PCC 7002; conditions: Synechococcus, read-out: Minimum inhibitory concentration
Description: as §5

PCC 6803 sll0542::KmR = experiment: Minimum inhibitory concentration, deletion strain; type: cell-based, Synechocystis sp. PCC 6803; conditions: Synechocystis; Table 3
Description: as §5, §4

PCC 7002 A^+ = experiment: Minimum inhibitory concentration, spontaneous acrylic acid-tolerant mutant; type: cell-based, Synechococcus sp. PCC 7002
Description: as §2

[6] = test system: PCC 7002 acsA:BC glpK::acsA aadA; experiment: Minimum inhibitory concentration, acsA complementation strain; type: cell-based, Synechococcus sp. PCC 7002; conditions: Synechococcus, read-out: Minimum inhibitory concentration
Description: as §5

[7] = SP.PCC7002, read-out: Minimum inhibitory concentration
[8] = SP.PCC7942, read-out: Minimum inhibitory concentration
[9] = SP.PCC6803, read-out: Minimum inhibitory concentration

Which results are given for `CCC(=O)O` [propionic acid]?
Acyl-CoA ligase activity of AcsA towards substrate (AcsA): has an activity; MIC ([1]; SP.PCC7002, Table 1, pH of about 8, no increase in OD730, read-out: Minimum inhibitory concentration): 4000 µM (≈ 296 µg/mL); Minimum inhibitory concentration [1]: 4000 µM (≈ 296 µg/mL); MIC ([2]; SP.PCC7942, Table 1, pH of about 8, no increase in OD730, read-out: Minimum inhibitory concentration): 250 µM (≈ 18.5 µg/mL); Minimum inhibitory concentration [2]: 250 µM (≈ 18.5 µg/mL); MIC ([3]; SP.PCC6803, Table 1, pH of about 8, no increase in OD730, read-out: Minimum inhibitory concentration): 250 µM (≈ 18.5 µg/mL); Minimum inhibitory concentration [3]: 250 µM (≈ 18.5 µg/mL); Increase in MIC on functional deletion of the acsA gene product (PCC 7002 acsA::aadA): ≥ 100 fold

What does the source list for `C=CC(=O)O` [acrylic acid]?
pKa [4]: 4.35; MIC [5]: 7000 µM (≈ 504 µg/mL); MIC (PCC 7002 acsA::BC): 70000 µM (≈ 5040 µg/mL); MIC (PCC 6803 sll0542::KmR): 70000 µM (≈ 5040 µg/mL); Acyl-CoA ligase activity of AcsA towards substrate (AcsA): has an activity; MIC [1, 7]: 25 µM (≈ 1.8 µg/mL); Minimum inhibitory concentration [1]: 25 µM (≈ 1.8 µg/mL); Inhibitory concentration ([1]; growth by OD730): less than 5 mM; pH dependence of toxicity ([1]; toxicity increasing with decreasing pH): pH dependent; Increase in tolerance over WT PCC 7002 MIC values (PCC 7002 A^+; PCC 7002 A^+ vs WT): about 280 fold; MIC (PCC 7002 A^+; Synechococcus, Table 1, strain isolated from agar plate containing 5 mM acrylic acid): 7000 µM (≈ 504 µg/mL); MIC [2, 8]: 3 µM (≈ 0.216 µg/mL); Minimum inhibitory concentration [2]: 3 µM (≈ 0.216 µg/mL); MIC [3, 9]: 50 µM (≈ 3.6 µg/mL); Minimum inhibitory concentration [3]: 50 µM (≈ 3.6 µg/mL); MIC [6]: 15 µM (≈ 1.08 µg/mL); Increase in MIC on functional deletion of the acsA gene product (PCC 7002 acsA::aadA): ≥ 2.800 fold; MIC (PCC 7002 acsA::aadA; Synechococcus, read-out: Minimum inhibitory concentration): 70000 µM

Which results are given for `O=C(O)CCO` [3HP, 3-hydroxypropionic acid]?
MIC (PCC 6803 sll0542::KmR): < 50000 µM; Acyl-CoA ligase activity of AcsA towards substrate (AcsA): has an activity; MIC [1, 7]: 10000 µM (≈ 901 µg/mL); Minimum inhibitory concentration [1]: 10000 µM (≈ 901 µg/mL); MIC [2, 8]: 2000 µM (≈ 180 µg/mL); Minimum inhibitory concentration [2]: 2000 µM (≈ 180 µg/mL); MIC [3, 9]: > 35000 µM; MIC [6]: 15000 µM (≈ 1350 µg/mL); Increase in MIC on functional deletion of the acsA gene product (PCC 7002 acsA::aadA): ≥ 26 fold; Concentration at which the ΔacsA mutant was able to grow without inhibition (PCC 7002 acsA::aadA; ΔacsA mutant): > 500 mM

With `CC(=O)O` [acetate, reference compound] as the compound, how does the “Acyl-CoA ligase activity of AcsA towards substrate” value (AcsA) read?
Its value is “has an activity”.
